# Patent publication US20230183243A1, “HETEROARYL DERIVATIVES AND PHARMACEUTICAL COMPOSITION COMPRISING SAME AS ACTIVE INGREDIENT” (VORONOI INC., priority 2019, published 2023)
# Structures can show the parent of a compound that is named as a salt.
# Assays:
# MDA-MB-231 cells = assay: Inhibition of proliferation of triple-negative breast cancer cells, CellTiter-Glo; type: cell-based; settings: Homo sapiens, 120 h; MDA-MB-231, cultured for 5 days
# How it was run: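 MDA-MB-231 cells pre-cultured 24 h (5% CO2, 37 °C), then exposed to compound for 5 days at 12 three-fold dilutions, final 10 μM to 0.05 nM. Viability read by CellTiter-Glo luminescence after 10 min at 37 °C; growth inhibition calculated relative to untreated solvent-control cells.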
# SHP-77 = assay: Inhibition of proliferation of small cell lung cancer cells, CellTiter-Glo; type: cell-based; settings: Homo sapiens, SHP77, 120 h; SHP-77, cultured for 5 days
# Method: Specifically, the following test was performed to evaluate the inhibitory activity of the compound according to the present invention against the cell proliferation in the SCLC cells.
# To check an inhibitory ability of cell growth in one SCLC cell line, a test was performed as follows. Cells were seeded in 180 μL of a culture broth at a density of 2,000 to 3,000 cells/well in a white clear bottom 96-well plate (Corning) according to the growth ability of each cell, and then cultured for 24 hours under conditions of 5% CO2 and 37° C. Thereafter, the compound was prepared by diluting a 10 mM stock solution three-fold with 100% DMSO at a total of 12 concentrations so that a peak concentration of the compound was in a range of 10 mM to 0.05 μM, and the diluted compound was then diluted in each cell culture medium so that a final concentration of the compound was in a range of 100 μM to 0.5 nM. 20 μL of a diluted solution diluted with a medium was added to the cell solution in which cells were seeded in the 96-well plate on the previous day so that a final concentration of the diluted solution was in a range of 10 μM to 0.05 nM. Each of the cells was cultured for 5 days. To check cell viability, a mixture provided in aCellTiter-Glo® Luminescent Cell Viability Assay Kit (Promega) was added to each of the cultured cell media, and cultured for another 10 minutes under a condition of 37° C. Then, a degree of luminescence (fluorescence) was measured. A degree of inhibition of the cell growth according to the treatment concentration of each of the compounds was calculated based on the fluorescence of the solvent control cells which were not treated with the compound. In this case, the concentration of each of the compounds inhibiting 50% of the cell growth was determined to be a GI50 (nM) value, and calculated using Prism (Version 7.01; GraphPad) software.
# TTK = biological target: T1, TTK (Homo sapiens, UniProt P33981); assay: TTK enzyme activity, ADP-Glo kinase assay; type: biochemical; set-up: purchased SignalChem T20-10G; settings: purified human TTK, ATP 10 μM, 25° C., 2 hours
# T1 sequence (P33981 1-857): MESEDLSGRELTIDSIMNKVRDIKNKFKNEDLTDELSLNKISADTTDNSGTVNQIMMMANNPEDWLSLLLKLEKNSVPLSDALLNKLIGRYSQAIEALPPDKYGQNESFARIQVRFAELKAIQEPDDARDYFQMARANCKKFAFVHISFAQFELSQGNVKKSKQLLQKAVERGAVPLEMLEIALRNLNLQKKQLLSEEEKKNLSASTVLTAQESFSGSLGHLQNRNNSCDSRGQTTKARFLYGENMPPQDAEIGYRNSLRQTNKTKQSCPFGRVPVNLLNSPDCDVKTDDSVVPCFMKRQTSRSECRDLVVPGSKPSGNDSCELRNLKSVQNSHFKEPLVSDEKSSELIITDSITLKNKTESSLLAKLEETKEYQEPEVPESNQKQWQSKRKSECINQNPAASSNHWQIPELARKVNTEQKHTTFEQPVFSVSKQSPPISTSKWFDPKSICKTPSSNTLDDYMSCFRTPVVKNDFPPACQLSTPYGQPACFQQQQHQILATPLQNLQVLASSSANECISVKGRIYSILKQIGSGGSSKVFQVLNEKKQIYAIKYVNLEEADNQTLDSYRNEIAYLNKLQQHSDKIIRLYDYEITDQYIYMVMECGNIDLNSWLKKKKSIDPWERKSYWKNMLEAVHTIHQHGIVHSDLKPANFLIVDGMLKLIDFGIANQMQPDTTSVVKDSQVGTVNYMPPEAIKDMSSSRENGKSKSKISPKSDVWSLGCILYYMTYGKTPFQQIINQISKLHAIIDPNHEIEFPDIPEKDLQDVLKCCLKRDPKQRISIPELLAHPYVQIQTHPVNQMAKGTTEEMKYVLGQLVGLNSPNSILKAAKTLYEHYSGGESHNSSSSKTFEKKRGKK
# How it was run: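 Purified human TTK (25 ng) incubated with 10 μM ATP and substrate (0.2 μg) for 2 h at 25 °C in Tris-HCl pH 7.4, MgCl2, BSA, DTT buffer. ADP formation read by ADP-Glo; inhibition calculated against untreated solvent control.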
GI50 (MDA-MB-231 cells) [nM],GI50 (SHP-77) [nM],IC50 (TTK) [nM],SMILES
< 100,< 100,< 50,"Cn1nccc1-c1ccc(Nc2nc(NC3CCOCC3)c3c(C#N)c[nH]c3n2)c2c1OCCO2 [Example 40, 2-((8-(1-methyl-1H-pyrazol-5-yl)-2,3-dihydrobenzo[b][1,4]dioxin-5-yl)amino)-4-((tetrahydro-2H-pyran-4-yl)amino)-7H-pyrrolo[2,3-d] pyrimidine-5-carbonitrile]"
< 100,< 100,50 to 200,"Cn1nccc1-c1ccc(Nc2nc(NCC3CCCC3)c3c(C#N)c[nH]c3n2)c2c1OCCO2 [Example 50, 4-((cyclopentylmethyl)amino)-2-((8-(1-methyl-1H-pyrazol-5-yl)-2,3-dihydrobenzo[b][1,4]dioxin-5-yl)amino)-7H-pyrrolo[2,3-d] pyrimidine-5-carbonitrile hydrochloride]"
100 to 1000,< 100,50 to 200,"N#Cc1c[nH]c2nc(Nc3ccc(N4CCCCS4(=O)=O)c(F)c3)nc(NC3CCCC3)c12 [Example 57, 4-(cyclopentylamino)-2-((4-(1,1-dioxido-l,2-thiazinan-2-yl)-3-fluorophenyl)amino)-7H-pyrrolo[2,3-d] pyrimidine-5-carbonitrile]"
100 to 1000,100 to 1000,< 50,"Cn1nccc1-c1ccc(Nc2nc(NC3CCCC3)c3cc[nH]c3n2)c2c1OCCO2 [Example 114, N^4-cyclopentyl-N^2-(8-(1-methyl-1H-pyrazol-5-yl)-2,3-dihydrobenzo[b][1,4]dioxin-5-yl)-7H-pyrrolo[2,3-d] pyrimidine-2,4-diamine]"
100 to 1000,< 100,< 50,"N#Cc1c[nH]c2nc(Nc3ccc(N4CCCS4(=O)=O)c(F)c3)nc(NC3CCCC3)c12 [Example 173, 4-(cyclopentylamino)-2-((4-(1,1-dioxidoisothiazolidin-2-yl)-3-fluorophenyl)amino)-7H-pyrrolo[2,3-d] pyrimidine-5-carbonitrile]"
< 100,< 100,50 to 200,"COc1cc(-c2c(C)noc2C)ccc1Nc1nc(NC2CCCCCC2)c2c(C#N)c[nH]c2n1 [Example 149, 4-(cycloheptylamino)-2-((4-(3,5-dimethylisoxazol-4-yl)-2-methoxyphenyl)amino)-7H-pyrrolo[2,3-d] pyrimidine-5-carbonitrile]"
> 1000,> 1000,< 50,"COc1cc(-c2cnn(C)c2)c(F)cc1Nc1nc(NC2CCCCC2)c2c(C#N)c[nH]c2n1 [Example 126, 4-(cyclohexylamino)-2-((5-fluoro-2-methoxy-4-(1-methyl-1H-pyrazol-4-yl)phenyl)amino)-7H-pyrrolo[2,3-d] pyrimidine-5-carbonitrile]"
< 100,< 100,< 50,"COc1cc(-c2ccnn2C)ccc1Nc1nc(NC2CCOC(C)(C)C2)c2c(C#N)c[nH]c2n1 (stereo not drawn) [Example 115, 4-((2,2-dimethyltetrahydro-2H-pyran-4-yl)amino)-2-((2-methoxy-4-(1-methyl-1H-pyrazol-5-yl)phenyl)amino)-7H-pyrrolo[2,3-d] pyrimidine-5-carbonitrile]"
100 to 1000,100 to 1000,< 50,"C=CC(=O)Nc1cc(-c2ccnn2C)ccc1Nc1nc(NC2CCCC2)c2c(C#N)c[nH]c2n1 [Example 142, N-(2-((5-cyano-4-(cyclopentylamino)-7H-pyrrolo[2,3-d]pyrimidin-2-yl)amino)-5-(1-methyl-1H-pyrazol-5-yl)phenyl)acrylamide]"
< 100,< 100,< 50,"COc1cc(-c2ccnn2C)ccc1Nc1nc(NC2CCCC2)c2c(C#N)c[nH]c2n1 [Example 16, 4-(cyclopentylamino)-2-((2-methoxy-4-(1-methyl-1H-pyrazol-5-yl)phenyl)amino)-7H-pyrrolo[2,3-d] pyrimidine-5-carbonitrile]"
100 to 1000,100 to 1000,200 to 1000,"COc1cc(-c2c(C)noc2C)c(F)cc1Nc1nc(NC2CCOCC2)c2c(C#N)c[nH]c2n1 [Example 102, 2-((4-(3,5-dimethylisoxazol-4-yl)-5-fluoro-2-methoxyphenyl)amino)-4-((tetrahydro-2H-pyran-4-yl)amino)-7H-pyrrolo[2,3-d] pyrimidine-5-carbonitrile]"
< 100,< 100,< 50,"COc1cc(-c2cnn(C)c2)c(F)cc1Nc1nc(NC2CCOCC2)c2c(C#N)c[nH]c2n1 [Example 124, 2-((5-fluoro-2-methoxy-4-(1-methyl-1H-pyrazol-4-yl)phenyl)amino)-4-((tetrahydro-2H-pyran-4-yl)amino)-7H-pyrrolo[2,3-d] pyrimidine-5-carbonitrile]"
< 100,< 100,< 50,"COCCNc1nc(Nc2ccc(-n3ccnc3C)cc2OC)nc2[nH]cc(C#N)c12 [Example 98, 2-((2-methoxy-4-(2-methyl-1H-imidazol-1-yl)phenyl)amino)-4-((2-methoxyethyl)amino)-7H-pyrrolo[2,3-d] pyrimidine-5-carbonitrile]"
< 100,< 100,< 50,"N#Cc1c[nH]c2nc(Nc3ccc(N4CCCC4=O)c4c3OCCO4)nc(NC3CCCCCC3)c12 [Example 151, 4-(cycloheptylamino)-2-((8-(2-oxopyrrolidin-1-yl)-2,3-dihydrobenzo[b][1,4]dioxin-5-yl)amino)-7H-pyrrolo[2,3-d] pyrimidine-5-carbonitrile]"
100 to 1000,100 to 1000,50 to 200,"COc1cc(N2CCCCS2(=O)=O)ccc1Nc1nc(NC2CCCC2)c2c(C(F)(F)F)c[nH]c2n1 [Example 177, 2-(4-((4-(cyclopentylamino)-5-(trifluoromethyl)-7H-pyrrolo[2,3-d]pyrimidin-2-yl)amino)-3-methoxyphenyl)-1,2-thiazinane 1,1-dioxide]"
< 100,< 100,200 to 1000,"COc1cc(Nc2nc(NC3CCCCC3)c3c(C#N)c[nH]c3n2)ccc1-c1c(C)noc1C [Example 140, 4-(cyclohexylamino)-2-((4-(3,5-dimethylisoxazol-4-yl)-3-methoxyphenyl)amino)-7H-pyrrolo[2,3-d] pyrimidine-5-carbonitrile]"
100 to 1000,100 to 1000,200 to 1000,"Cn1nccc1-c1ccc(Nc2nc(NC3CCCC3)c3c(C(F)(F)F)c[nH]c3n2)c2c1OCCO2 [Example 133, N^4-cyclopentyl-N^2-(8-(1-methyl-1H-pyrazol-5-yl)-2,3-dihydrobenzo[b][1,4]dioxin-5-yl)-5-(trifluoromethyl)-7H-pyrrolo[2,3-d] pyrimidine-2,4-diamine]"
< 100,< 100,< 50,"Cn1cc(-c2ccc(Nc3nc(NC4C[C@H]5CC[C@@H]4C5)c4c(C#N)c[nH]c4n3)c3c2OCCO3)cn1 (stereo partly drawn) [Example 147, 4-(((1R,4S)-bicyclo[2.2.1]heptan-2-yl)amino)-2-((8-(1-methyl-1H-pyrazol-4-yl)-2,3-dihydrobenzo[b][1,4]dioxin-5-yl)amino)-7H-pyrrolo[2,3-d] pyrimidine-5-carbonitrile]"
